The source of these data is patent US20130217735A1, “FUNGICIDAL COMPOSITIONS AND METHODS OF USE” (Agri-Food and BioSciences Institute, priority 2010, published 2013).

Read-outs that look alike come from different tables or passages of the source.

For series [1], the system named is P. erythroseptica. As to the kind of experiment: Example 8 sensitivity testing of potato tuber pathogens to imazalil derivatives (EC50). In kind it is cell-based, Phytophthora erythroseptica. Conditions: for EC50: Trial B, read-out: EC50 (concentration required to reduce mycelial growth by 50%). The method, then: (§1) For tests with imazalil sulphate and imazalilium docusate prepared according to Trial B, imazalil sulphate (0.5 g, drug pure, Janssen) was dissolved in sterile water (100 ml) to give a stock solution (12.7 mM). […] Dilutions (alternately five-fold and two-fold) of each of these stock solutions were prepared (in water for imazalil sulphate and in ethanol for imazalilium docusate) to produce a dilution series (12.7, 2.54, 1.27, 0.25, and 0.13 mM).
(§2) Log-probability plots of the percentage reduction in growth against the concentration were used to estimate EC50 values (the concentration required to reduce mycelial growth by 50%) (see Table 6).

The subject of series [2] is F. culmorum. Described as above. The class given is cell-based. Conditions: isolate F. culmorum P13, Trial B, read-out: EC50 (concentration required to reduce mycelial growth by 50%). The method, then:
as §1, §2

Series [3] has as its system Phoma foveata. The description is as above. The class given is cell-based. The following applies: isolate Phoma foveata BL2/5 T3, Trial B, read-out: EC50 (concentration required to reduce mycelial growth by 50%). As to the method: as §1, §2
The test system of series [4] is F. sambucinum. The series is described as above. The class given is cell-based. The following applies: Trial B, read-out: EC50 (concentration required to reduce mycelial growth by 50%). As to the method:
as §1, §2

Series [5] has as its system Phoma exigua. Described as above. The class given is cell-based. Conditions: isolate Phoma exigua 9.1; Trial B; read-out: EC50 (concentration required to reduce mycelial growth by 50%). As to the method: as §1, §2
Series [6] deals with F. coeruleum. Described as above. Conditions: isolate F. coeruleum ex B7/06 T8; Trial B; read-out: EC50 (concentration required to reduce mycelial growth by 50%). The class given is cell-based. The method, then: as §1, §2
Series [7] is described as follows: Thermogravimetric analysis (thermal stability). In kind it is physicochemical. The following applies: TGA under nitrogen, 5° C./min. As to the method: Thermogravimetric analysis was performed on a Mettler Toledo Star^e TGA/DSC (Leicester, UK) under nitrogen. Samples between 5 and 10 mg were placed in open alumina pans and were heated from 25° C. to 600° C. with a heating rate of 5° C./min. Decomposition temperatures (T5% dec) were reported from onset to 5 wt % mass loss Infrared spectra were recorded as neat samples from 4000-450 cm^−1 on a Perkin-Elmer Spectrum 65 FT-IR spectrometer fitted with a Universal ATR Sampling Accessory. Differential scanning calorimetry (DSC) was performed on a Mettler Toledo Star^e DSC (Leicester, UK) under nitrogen. Samples between 5 and 10 mg were heated from 25° C. to 110° C. at a heating rate of 5° C./min followed by a 5 min isotherm. A cooling rate of 5° C./min to −70° C. was followed by a 5 min isotherm at −70° C., and the cycle was repeated twice. A melting transition was observed as single-event peak in the first run. […] Transitions above ambient temperature were confirmed optically on a Stuart SMP3 melting point apparatus.

Series [8] has as its system Phytophthora erythroseptica. As to the kind of experiment: Example 7 sensitivity testing of potato tuber pathogens to thiabendazole derivatives. In kind it is cell-based. The following applies: for Inhibition (%) of mycelial growth: Trial B. The method, then: (§3) In vitro tests of the IL thiabendazolium docusate were performed in comparison to the neutral fungicide using selected isolates of Fusarium spp., the cause of potato dry rot. F. coeruleum and F. culmorum are sensitive to thiabendazole whereas isolates of F. sambucinum are frequently resistant. Isolates of Phoma spp., the cause of gangrene, and Phytophthora erythroseptica, the cause of pink rot, were also tested. All except F. sambucinum ex SASA were isolated in a laboratory. F. sambucinum ex SASA was supplied by SASA (Science and Advice for Scottish Agriculture, Roddinglaw Road, Edinburgh, EH12 9F, UK).
(§4) In each test three replicate plates for each organism per concentration were used and tests were repeated at least once.

For series [9], the system named is P. foveata. Kind of series: Example 5 agar plate mycelial growth test of TBZ derivatives. The following applies: isolate P. foveata BL2 05 T3, Trial A.
Experimental: (§5) Both TBZ docusate and TBZ stearate were tested at final concentrations of 250 μm and 25 μm in agar. To prepare the TBZ docusate stock solution for 250 μm, 0.155 g of TBZ docusate prepared according to Trial A was added to a 10 mL volumetric flask and was dissolved in 10 mL of ethanol. The solution was mixed thoroughly. To prepare the TBZ docusate stock solution for 25 μm, 1 ml of the above stock solution was pipetted into a second 10 mL flask and 10 mL ethanol was added. The solution was mixed thoroughly. To prepare the TBZ stearate stock solution for 250 μm, 0.121 g of TBZ stearate was added to a 10 mL volumetric flask and was dissolved in 10 mL ethanol. The solution was mixed thoroughly. To prepare the TBZ stearate stock solution for 25 μm, 1 mL of the 250 μm TBZ stearate stock solution was pipetted into a second 10 mL flask and 10 mL ethanol was added. The solution was mixed thoroughly.
(§6) The agar was prepared and autoclaved. Potato dextrose agar (PDA) was used for the Fusarium species and Phytophthora erythroseptica and malt agar was used for the Phoma species. The agar was allowed to cool to 50° C. Each of the stock solutions was added to the agar at the rate of 10 mL stock solution per liter of agar to give the two final concentrations, for both TBZ stearate and docusate, in agar. Also prepared were a 1% ethanol control (10 mL per liter of agar) and an untreated agar as a second control. The plates were prepared in triplicate for each concentration.
(§7) For each pathogen isolate tested, 3 plates of 250 μm/1, 3 plates of 25 μm/1, 3 plates of 1% ethanol, and 3 plates of untreated agar were inoculated using an agar plug cut with a no. 3 cork borer from the margin of an actively-growing culture on agar. The plates were incubated at an appropriate temperature (usually 18-20° C.) in darkness. The growth rate was monitored and assessed after 5-7 days. The growth was assessed by measuring colony diameters minus plug (two measurements at right-angles) per plate. The percent reduction was calculated with respect to the control.
(§8) Pure thiabendazole (TBZ; 0.5 g) obtained from MSD Agvet (Rahway, N.J.) was dissolved in water (10 mL) by adding the minimum required volume (c. 0.5 mL) of hypophosphorous acid and heating gently with stirring, then made up to 100 mL with water to give a stock solution (25 mM). TBZ docusate (0.155 g) or TBZ stearate (0.121 g) was dissolved in ethanol (100 ml) to give stock solutions (25 mM). A ten-fold dilution of each of these stock solutions was prepared (in water for TBZ and in ethanol for TBZ docusate and stearate). […] In addition, agar with 1% v/v ethanol and unamended agar was prepared (ethanol and unamended controls). The agar was poured into Petri plates (9 cm) and allowed to set.
(§9) Isolates of the appropriate potato tuber pathogens were grown on PDA for Fusarium spp. and Phytophthora erythroseptica or on MA for Phoma spp. Each isolate to be tested was inoculated onto three replicate plates of the two concentrations of each compound and onto ethanol and unamended agar controls using plugs (6 mm diameter) cut from the margins of actively growing cultures. Plates were incubated in darkness at 20° C. and mycelial growth measured (two measurements at right-angles for each plate) after 5-7 days (depending on the growth rates).
The test system of series [10] is P. erythroseptica. Described as above. The following applies: isolate P. erythroseptica BL2/08 P31, Trial A.
Experimental: as §5, §6, §7, §8, §9
In series [11] the test system is F. sulphureum. Described as above. Conditions: isolate F. sulphureum ex SASA, 5-7 days, TBZ docusate Trial A.
Experimental: as §5, §6, §7, §8, §9
For series [12], the system named is P. exigua. The series is described as above. Conditions: isolate P. exigua 9.1, Trial A.
Experimental: as §5, §6, §7, §8, §9
In series [13] the test system is F. culmorum. As to the kind of experiment: Example 7 sensitivity testing of potato tuber pathogens to thiabendazole derivatives. Conditions: isolate F. culmorum P13, Trial B. The class given is cell-based. As to the method:
as §3, §4

The test system of series [14] is Phoma foveata. The series is described as above. Conditions: isolate Phoma foveata BL2 05 T3, Trial B. In kind it is cell-based. As to the method:
as §3, §4

The test system of series [15] is F. sambucinum. Described as above. The class given is cell-based. Conditions: Trial B. The method, then:
as §3, §4

Series [16] deals with Phoma exigua. The description is as above. In kind it is cell-based. Conditions: isolate Phoma exigua 9.1, Trial B. The method, then: as §3, §4
In series [17] the test system is F. coeruleum. Described as above. In kind it is cell-based. The following applies: Trial B. As to the method:
as §3, §4

The subject of series [18] is F. coeruleum. Kind of series: Example 5 agar plate mycelial growth test of TBZ derivatives. Conditions: isolate F. coeruleum ex B7/06 T8, Trial A.
Series [19] concerns F. culmorum. The series is described as above. In kind it is cell-based. Conditions: isolate F. culmorum P13, Trial A.
The mark [20] stands for this setting: isolate P. erythroseptica BL2/08 P31.

With `C=CCOC(Cn1ccnc1)c1ccc(Cl)cc1Cl` (centres unmarked) [Imazalil, imazalil, reference compound], the EC50 in series [1] (Phytophthora erythroseptica, isolate P. erythroseptica Rooster Eire) was over 127 µM; in series [1] (setting [20]) it was over 127 µM; in series [2] (Fusarium culmorum), 0.4 µM; in [3] (Boeremia foveata), 2.7 µM; in series [4] (Fusarium sambucinum, isolate F. sambucinum L'gall 11), 1.8 µM; in [4] (Fusarium sambucinum, isolate F. sambucinum ex SASA, log-probability plot), 0.7 µM. In addition, the EC50 is 5.6 µM in series [5] and 12.9 µM in [6].
Turning to `C=CCOC(Cn1ccnc1)c1ccc(Cl)cc1Cl` (centres unmarked) [Imazalilium docusate, imazalilium docusate], in series [7], the “T5% onset (decomposition temperature, onset to 5 wt % mass loss)” value was found to be 208.8 °C. Also, the “activity against P. erythroseptica” value in [1] (in words, Table 6) is on record as “showed some activity”. In addition, the EC50 in series [1] (setting [20]) was found to be 38.4 µM; in series [1] (isolate P. erythroseptica Rooster Eire), 100 µM; in [2] it was 0.4 µM; in [3], 4.6 µM; in series [4] (isolate F. sambucinum L'gall 11), 2.6 µM; in series [4] (isolate F. sambucinum ex SASA, log-probability plot) it was 1 µM. The values for the EC50 in [5] and in series [6] were 7.3 µM and 19.2 µM, respectively.
In the case of `c1ccc2[nH]c(-c3cscn3)nc2c1` [TBZ docusate, thiabendazolium docusate], in series [7], the “T5% onset (decomposition temperature, onset to 5 wt % mass loss)” value came out at 252.0 °C. Also, the “activity against P. erythroseptica compared with thiabendazole alone” value in series [8] (in words, Table 5) was “more active”.
As for `CCn1cc[n+](C)c1.CCn1cc[n+](C)c1.S=C([S-])NCCNC(=S)[S-]` [[C2mim]2ebdtc, di(1-ethyl-3-methylimidazolium)ethylenbis-(dithiocarbamate)], in [7], the “T5% onset (decomposition temperature, onset to 5 wt % mass loss)” value turned out to be 147.1.
Turning to thiabendazolium docusate [TBZ docusate], the “Inhibition (%) of mycelial growth” value in series [9] (25 μM in agar) amounted to 95%; in series [9] (250 μM in agar), 99%; in series [10] (25 μM in agar), 62%; in series [10] (250 μM in agar) it was 100%; in series [11] (25 μM in agar) it was 27%; in [11] (250 μM in agar), 97%. Further, the “Inhibition (%) of mycelial growth” value in [12] (25 μM in agar) is 90%; in series [12] (250 μM in agar), 98%; in series [8] (isolate Phytophthora erythroseptica BL2/08 P31, 25 μM in agar), 33%; in [8] (isolate Phytophthora erythroseptica BL2/08 P31, 250 μM in agar) it was 97%; in [8] (isolate Phytophthora erythroseptica Rooster Eire, 25 μM in agar), 11%; in series [8] (isolate Phytophthora erythroseptica Rooster Eire, 250 μM in agar), 91%. The “Inhibition (%) of mycelial growth” value in series [13] (25 μM in agar) is listed as 100%; in series [13] (250 μM in agar) it was 100%; in series [14] (25 μM in agar) it was 95%; in series [14] (250 μM in agar), 99%; in series [15] (isolate F. sambucinum L'gall 11, 25 μM in agar) it was 19%; in series [15] (isolate F. sambucinum L'gall 11, 250 μM in agar), 83%. Besides, the “Inhibition (%) of mycelial growth” value is 11% in series [15] (isolate F. sambucinum L'gall 53, 25 μM in agar); 68% in [15] (isolate F. sambucinum L'gall 53, 250 μM in agar); 19% in series [15] (isolate F. sambucinum ex SASA, 25 μM in agar); 96% in series [15] (isolate F. sambucinum ex SASA, 250 μM in agar, vs 1% ethanol control); 94% in [16] (25 μM in agar); 99% in [16] (250 μM in agar). The “Inhibition (%) of mycelial growth” value in series [17] (isolate F. coeruleum ex B7/06 T8, 25 μM in agar) turned out to be 99%; in series [17] (isolate F. coeruleum ex B7/06 T8, 250 μM in agar), 99%; in series [17] (isolate F. coeruleum ex B16/08 P31, 25 μM in agar) it was 100%; in series [17] (isolate F. coeruleum ex B16/08 P31, 250 μM in agar) it was 100%; in series [18] (25 μM in agar), 98%; in series [18] (250 μM in agar), 98%. In addition, the “Inhibition (%) of mycelial growth” value in [19] (25 μM in agar) and in [19] (250 μM in agar) was 100% each time.
